Key:
[1] = biological target: T1, human orexin 1 receptor (hOx1R) (Homo sapiens, UniProt O43613); assay: Calcium accumulation in cells (FLIPR), antagonism of orexin A, hOx1R; assay type: cell-based; details: for inhibition at 10 µM: measured at a concentration of 10 μM of compound (cells marked ^a); for Kd: cells expressing human orexin 1 receptor, IC50 vs orexin A converted by Cheng and Prusoff correction
T1 construct: expressed in transfected cells
T1 sequence (O43613 1-425): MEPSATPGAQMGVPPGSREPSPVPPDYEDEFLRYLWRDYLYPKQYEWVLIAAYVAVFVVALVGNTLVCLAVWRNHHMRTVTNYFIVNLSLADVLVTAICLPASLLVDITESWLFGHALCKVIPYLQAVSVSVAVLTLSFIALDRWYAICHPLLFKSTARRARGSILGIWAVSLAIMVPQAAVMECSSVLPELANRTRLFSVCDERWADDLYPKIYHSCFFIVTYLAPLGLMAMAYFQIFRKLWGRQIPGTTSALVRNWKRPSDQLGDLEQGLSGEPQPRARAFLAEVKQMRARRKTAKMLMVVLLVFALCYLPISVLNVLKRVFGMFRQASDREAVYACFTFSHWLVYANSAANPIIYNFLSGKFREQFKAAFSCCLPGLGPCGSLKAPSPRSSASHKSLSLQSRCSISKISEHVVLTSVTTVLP
Protocol: (§1) Cells expressing human orexin 1 or human orexin 2 receptors, were seeded at 8,000 cells/well in 384 well black-walled clear bottom, poly-D-lysine coated plates. After 24 h, the medium was removed and cells were washed once with phosphate buffered saline and serum-deprived overnight in assay buffer (130 mM NaCl, 5.4 mM KCl, 1.8 mM CaCl2, 0.8 mM MgSO4, 0.9 mM NaH2PO4, 25 mM glucose, 20 mM HEPES, pH 7.4) containing bovine serum albumin (1% w/v).
(§2) On the day of the experiment, the cells seeded in black plates were treated with assay buffer containing the Ca^2+ sensitive fluorescent dye Fluo-4-AM (2 μM), and probenecid (0.1 mM). After 1 h plates were washed twice with, and resuspended in, assay buffer containing probenecid (0.1 mM) using a multi plate washer. The plates were placed into a FLIPR II (Fluorometric Imaging Plate Reader, Molecular Devices, Sunnyvale, Calif., USA) and baseline fluorescence (fluorescence light units, FLU) was measured (5 measurements, 2 S each; laser excitation 488 nm at 0.6-1 W, CCD camera exposure 0.4 s) before addition of buffer alone (basal) or containing test compounds (either compound of formula I alone, agonist alone or agonist in the presence of various concentrations of compounds of formula I). Fluorescence measurements were then continued every 1 S for 120 S followed by every 4 S for 240 S.
(§3) The measurements were typically made in two sequences:
(§4) Compounds of formula I were tested usually in a concentration range from 10^−9 M to 10^−5 M.
(§5) In the second round, performed one hour later (to allow for equilibration), Orexin A was tested either in the absence (calibration curves, Orexin A agonist controls) or in the presence of compounds of formula I to determine antagonism.

[2] = biological target: T2, human orexin 2 receptor (hOx2R) (Homo sapiens, UniProt O43614); assay: Calcium accumulation in cells (FLIPR), antagonism of orexin A, hOx2R; assay type: cell-based; details: for Kd: cells expressing human orexin 2 receptor, IC50 vs orexin A converted by Cheng and Prusoff correction; for inhibition at 10 µM: measured at a concentration of 10 μM of compound (cells marked ^a)
T2 construct: expressed in transfected cells
T2 sequence (O43614 1-444): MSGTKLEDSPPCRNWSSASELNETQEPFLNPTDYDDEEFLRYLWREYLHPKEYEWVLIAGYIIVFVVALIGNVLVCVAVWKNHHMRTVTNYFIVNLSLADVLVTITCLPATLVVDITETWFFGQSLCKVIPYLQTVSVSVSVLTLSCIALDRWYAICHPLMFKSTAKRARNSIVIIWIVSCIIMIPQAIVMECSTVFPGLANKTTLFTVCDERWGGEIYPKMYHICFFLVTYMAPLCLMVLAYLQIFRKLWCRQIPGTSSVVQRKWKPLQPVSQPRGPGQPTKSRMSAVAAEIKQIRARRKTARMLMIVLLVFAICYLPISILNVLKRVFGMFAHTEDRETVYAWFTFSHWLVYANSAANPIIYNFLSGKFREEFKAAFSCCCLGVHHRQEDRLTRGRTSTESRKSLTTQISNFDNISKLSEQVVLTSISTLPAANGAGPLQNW
Protocol: as §1, §2, §3, §4, §5

**Q.** What does the source list for `CN(C(=O)c1ccc2c(c1)OC(C)(C)O2)[C@H](CCNC(=O)c1ccccn1)Cc1ccccc1` [Example 101, Pyridine-2-carboxylic acid {(S)-3-[(2,2-dimethyl-benzo[1,3]dioxole-5-carbonyl)-methyl-amino]-4-phenyl-butyl}-amide]?
**A.** inhibition at 10 µM [1]: 13%; Kd [2]: 1680 nM

**Q.** How did the inhibition at 10 µM [1] turn out when `CN(C(=O)c1ccccc1)[C@H](CCNC(=O)c1ccc2c(c1)CCO2)Cc1ccccc1` [Example 94, 2,3-Dihydro-benzofuran-5-carboxylic acid [(S)-3-(benzoyl-methyl-amino)-4-phenyl-butyl]-amide] was run?
**A.** 12%

**Q.** What about the Kd [2] of the same molecule?
**A.** 565 nM

**Q.** `CN(C(=O)c1ccccc1Br)[C@H](CCNC(=O)c1ccccn1)Cc1ccccc1` [Example 100, Pyridine-2-carboxylic acid {(8)-3-[(2-bromo-benzoyl)-methyl-amino]-4-phenyl-butyl}-amide] was tested. Which Kd [1] did it give?
**A.** 1080 nM

**Q.** What about the Kd [2] of the same molecule?
**A.** 131 nM

**Q.** `CN(C(=O)c1ccccc1)[C@H](CCNC(=O)c1cc2ccccc2cn1)Cc1ccccc1` [Example 89, Isoquinoline-3-carboxylic acid [(S)-3-(benzoyl-methyl-amino)-4-phenyl-butyl]-amide] was tested. Which Kd [1] did it give?
**A.** 5450 nM

**Q.** And the Kd [2]?
**A.** 2550 nM

**Q.** What does the source list for `CN(C(=O)c1ccccc1)[C@H](CCNC(=O)c1cccn1C)Cc1ccccc1` [Example 91, 1-Methyl-1H-pyrrole-2-carboxylic acid [(S)-3-(benzoyl-methyl-amino)-4-phenyl-butyl]-amide]?
**A.** inhibition at 10 µM [1]: 16%; Kd [2]: 375 nM

**Q.** Which results are given for `CN(C(=O)c1ccc2c(c1)OCO2)[C@@H](Cc1ccccc1)[C@H](O)CNC(=O)c1ccc2c(c1)OCO2` [Example 72, Benzo[1,3]dioxole-5-carboxylic acid {(2R,3S)-3-[(benzo[1,3]dioxole-5-carbonyl)-methyl-amino]-2-hydroxy-4-phenyl-butyl}-amide]?
**A.** inhibition at 10 µM [1]: 27%; Kd [2]: 761 nM

**Q.** For `CN(C(=O)c1ccccc1)[C@H](CCNC(=O)c1ccccn1)[C@@H](F)c1ccccc1` [Example 116, Pyridine-2-carboxylic acid [(3R,4S)-3-(benzoyl-methyl-amino)-4-fluoro-4-phenyl-butyl]-amide], which Kd [1] is on record?
**A.** 1550 nM

**Q.** And the inhibition at 10 µM [2]?
**A.** 29%

**Q.** `CN(C(=O)c1ccccc1)[C@H](CCNC(=O)c1ccccn1)C(C)(C)c1ccccc1` [Example 114, Pyridine-2-carboxylic acid [(R)-3-(benzoyl-methyl-amino)-4-methyl-4-phenyl-pentyl]-amide] was tested. Which inhibition at 10 µM [1] did it give?
**A.** 34%

**Q.** What about the inhibition at 10 µM [2] of the same molecule?
**A.** 18%

**Q.** Which Kd [1] does the source give for `CN(C(=O)c1ccc2c(c1)OCO2)[C@H](CCNC(=O)c1nc2ccccc2o1)Cc1ccccc1` [Example 108, Benzooxazole-2-carboxylic acid {(S)-3-[(benzo[1,3]dioxole-5-carbonyl)-methyl-amino]-4-phenyl-butyl}-amide] here?
**A.** 3990 nM

**Q.** And the Kd [2]?
**A.** 542 nM

**Q.** `CN(C(=O)c1ccccc1)[C@@H](Cc1ccccc1)[C@H](O)CNC(=O)c1ccccn1` [Example 69, Pyridine-2-carboxylic acid [(2R,3S)-3-(benzoyl-methyl-amino)-2-hydroxy-4-phenyl-butyl]-amide] was tested. Which Kd [1] did it give?
**A.** 3520 nM

**Q.** And the Kd [2]?
**A.** 1660 nM

**Q.** How did the inhibition at 10 µM [1] turn out when `CN(C(=O)c1ccccc1)[C@H](CCNC(=O)c1ccccc1)Cc1ccccc1` [Example 15, N—[(S)-3-(Benzoyl-methyl-amino)-4-phenyl-butyl]-benzamide] was run?
**A.** 17%

**Q.** And the Kd [2]?
**A.** 272 nM

**Q.** What does the source list for `CN(C(=O)c1ccccc1)[C@](C)(CCNC(=O)c1ccccn1)Cc1ccccc1` [Example 111, Pyridine-2-carboxylic acid [(S)-3-(benzoyl-methyl-amino)-3-methyl-4-phenyl-butyl]-amide]?
**A.** inhibition at 10 µM [1]: 25%; Kd [2]: 562 nM

**Q.** How did the Kd [1] turn out when `COc1ccc(C(=O)N(C)[C@H](CCNC(=O)c2nc3ccccc3n2C)Cc2ccccc2)cc1` [Example 90, 1-Methyl-1H-benzoimidazole-2-carboxylic acid {(S)-3-[(4-methoxy-benzoyl)-methyl-amino]-4-phenyl-butyl}-amide] was run?
**A.** 1250 nM

**Q.** What about the Kd [2] of the same molecule?
**A.** 2540 nM

**Q.** What does the source list for `CN(C(=O)c1ccccc1)[C@H](CCNC(=O)c1ccccn1)[C@@H](O)c1ccccc1` [Example 115, Pyridine-2-carboxylic acid [(3R,4S)-3-(benzoyl-methyl-amino)-4-hydroxy-4-phenyl-butyl]-amide]?
**A.** inhibition at 10 µM [1]: 13%; inhibition at 10 µM [2]: 33%

**Q.** Which inhibition at 10 µM [1] does the source give for `CN(C(=O)c1ccccc1)[C@H](CCNC(=O)c1nccn1C)Cc1ccccc1` [Example 92, 1-Methyl-1H-imidazole-2-carboxylic acid [(S)-3-(benzoyl-methyl-amino)-4-phenyl-butyl]-amide] here?
**A.** 2%

**Q.** And the Kd [2]?
**A.** 921 nM

**Q.** What does the source list for `CN(C(=O)c1ccccc1)[C@H](CCNC(=O)c1ccc2ccccc2n1)Cc1ccccc1` [Example 87, Quinoline-2-carboxylic acid [(S)-3-(benzoyl-methyl-amino)-4-phenyl-butyl]-amide]?
**A.** Kd [1]: 4420 nM; Kd [2]: 1290 nM

**Q.** Which inhibition at 10 µM [1] does the source give for `CC(=O)NCC[C@H](Cc1ccccc1)N(C)C(=O)c1ccc2c(c1)OCO2` [Example 109, Benzo[1,3]-dioxole-5-carboxylic acid ((S)-3-acetylamino-1-benzyl-propyl)-methyl-amide] here?
**A.** 39%

**Q.** What about the Kd [2] of the same molecule?
**A.** 1720 nM

**Q.** `CN(C(=O)c1ccccc1)[C@H](CCNC(=O)c1ccc2cccnc2c1)Cc1ccccc1` [Example 88, Quinoline-7-carboxylic acid [(S)-3-(benzoyl-methyl-amino)-4-phenyl-butyl]-amide] was tested. Which inhibition at 10 µM [1] did it give?
**A.** 19%

**Q.** And the Kd [2]?
**A.** 3090 nM

**Q.** How did the inhibition at 10 µM [1] turn out when `Cc1cccc(C)c1C(=O)N(C)[C@H](CCNC(=O)c1ccccn1)Cc1ccccc1` [Example 98, Pyridine-2-carboxylic acid {(8)-3-[(2,6-dimethyl-benzoyl)-methyl-amino]-4-phenyl-butyl}-amide] was run?
**A.** 28%

**Q.** And the inhibition at 10 µM [2]?
**A.** 24%

**Q.** How did the Kd [1] turn out when `CN(C(=O)c1ccc2ccn(C)c2c1)[C@H](CCNC(=O)c1ccccn1)Cc1ccccc1` [Example 85, 1-Methyl-1H-indole-6-carboxylic acid {(S)-1-benzyl-3-[(pyridine-2-carbonyl)-amino]-propyl}-methyl-amide] was run?
**A.** 237 nM

**Q.** And the Kd [2]?
**A.** 394 nM

**Q.** What does the source list for `CN(C(=O)c1ccccc1)[C@H](CCNC(=O)c1cccnc1)Cc1ccccc1` [Example 86, N—[(S)-3-(Benzoyl-methyl-amino)-4-phenyl-butyl]-nicotinamide]?
**A.** inhibition at 10 µM [1]: 4%; Kd [2]: 1500 nM

**Q.** Which Kd [1] does the source give for `COc1ccc(C(=O)N(C)[C@H](CCNC(=O)c2cccn2C)Cc2ccccc2)cc1OC` [Example 120, 1-Methyl-1H-pyrrole-2-carboxylic acid {(8)-3-[(3,4-dimethoxy-benzoyl)-methyl-amino]-4-phenyl-butyl}-amide] here?
**A.** 182 nM

**Q.** And the Kd [2]?
**A.** 4 nM

Reference: patent US20100222396A1 (Novartis AG, priority 2009, published 2010)
